Measured values published in PubChem BioAssay AID732 (Emory University Molecular Libraries Screening Center, 2007).
Several values for one entry are separate records, joined by “and”; a condition that tells them apart may be missing. Identical values can stand only once. Activity calls are given as the source filed them. No rule for the calls is given here.

test system: in vivo angiogenesis, blood vessel count; experiment: reduction of blood vessel formation in vivo – HTS, in vivo study (AID 732); details: hits give low values;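 tested at 30 µM in the well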;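 also: zebrafish embryos dosed at one day post fertilization; 0% = reference inhibitor and 100% = plate mean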

| SMILES | vessel count % control |
| --- | --- |
| CCCN(CCC)CCc1c[nH]c2ccc(C(N)=O)cc12 | 80.1% (inactive) |
| CC(C)NC[C@@H](O)COc1ccc(CC(N)=O)cc1 | 94.2% (inactive) |
| NCCCCNS(=O)(=O)c1cccc2c(Cl)cccc12 | 107% (inactive) |
| NC(Cc1ccc(Cl)cc1)C(=O)O (stereo not given) | 103% (inactive) |
| O=C(O)C1CCCN(CCC=C(c2ccccc2)c2ccccc2)C1 (stereo not given) | 88.5% (inactive) |
| CC[C@@]1(O)C(=O)OCc2c1cc1n(c2=O)Cc2cc3ccccc3nc2-1 | 0% (inactive) |
| CN(C)CCCC1(c2ccc(F)cc2)OCc2cc(C#N)ccc21 (stereo not given) | 99.8% (inactive) |
| C[C@@H]1O[C@@H](O[C@H]2C[C@@H](O)[C@]3(CO)[C@H]4[C@H](O)C[C@]5(C)[C@@H](C6=CC(=O)OC6)CC[C@]5(O)[C@@H]4CC[C@]3(O)C2)[C@H](O)[C@H](O)[C@H]1O | 109% (inactive) |
| CCc1c(C)[nH]c2c1C(=O)C(CN1CCOCC1)CC2 (stereo not given) | 93.5% (inactive) |
| C[N+](C)(C)CC(=O)O | 94% (inactive) |
| NC(Cn1oc(=O)[nH]c1=O)C(=O)O (stereo not given) | 129% (inactive) |
| CCCC(C)(COC(N)=O)COC(=O)NC(C)C (stereo not given) | 103% (inactive) |
| CNCCc1ccc(O)c(O)c1 | 96.5% (inactive) |
| O=C(Cc1ccc(Cl)c(Cl)c1)N1CCCCC1CN1CCCC1 (stereo not given) | 114% (inactive) |
| O=C(O)C1=CCNCC1 | 131% (inactive) |
| CCCN(CCC)C1Cc2cc(OC)c(OC)cc2C1 | 72.2% (inactive) |
| CC(C)(C)c1onc(OCP(=O)(O)O)c1CC(N)C(=O)O (stereo not given) | 88.9% (inactive) |
| C/C=C(/C)C(=O)O[C@H]1C(C)=C2[C@H]([C@@H]1OC(=O)CCCCCCC)[C@@](C)(OC(C)=O)C[C@H](OC(=O)CCC)[C@@]1(O)[C@H]2OC(=O)[C@@]1(C)O | 0% (inactive) |
| O=S(=O)(c1cccc2c(I)cccc12)N1CCCNCC1 | 114% (inactive) |
| O=C(O)/C=C/C(O)c1ccc(Cl)cc1 (stereo not given) | 115% (inactive) |
| CNC(=O)[C@H]1O[C@@H](n2cnc3c(NCc4ccc(N)cc4)ncnc32)C(O)[C@H]1O (stereo not given in full) | 134% (inactive) |
| CCN(CC)CC#CCOC(=O)C(O)(c1ccccc1)C1CCCCC1 (stereo not given) | 125% (inactive) |
| NCCNS(=O)(=O)c1cccc2cnccc12 | 98.2% (inactive) |
| O=C1C(SCCO)=C(SCCO)C(=O)c2ccccc21 | 0% (inactive) |
| CC1(NCC(O)COc2cccc3[nH]ccc23)CCC(C(C)(C)NC(=O)CBr)CC1 (stereo not given) | 124% (inactive) |

| SMILES | vessel count % control |
| --- | --- |
| CCCN(CCC)C1CCc2cccc(O)c2C1 (stereo not given) | 111% (inactive) |
| CCN(CC)CCCC(C)Nc1c2ccc(Cl)cc2nc2ccc(OC)cc12 (stereo not given) | 0% (inactive) |
| O=c1ccc2ccc(O)c(O)c2o1 | 121% (inactive) |
| O=C(O)CCCCCC[C@H]1C(=O)NC(=O)N1CC[C@@H](O)C1CCCCC1 | 93.1% (inactive) |
| Fc1ccc(C(c2ccc(F)cc2)N2CCN(C/C=C/c3ccccc3)CC2)cc1 | 91.5% (inactive) |
| CCN1C(=O)C=CC1=O | 104% (inactive) |
| CC1=C(/C=C/C(C)=C/C=C/C(C)=C\C(=O)O)C(C)(C)CCC1 | 76.1% (inactive) |
| C[C@H]1OC[C@@H](C[N+](C)(C)C)O1 | 115% (inactive) |
| N=C1Sc2ccccc2C2=NCCCN12 | 104% (inactive) |
| CCN1CCc2nc(N)oc2CC1 | 96.4% (inactive) |
| CC(N)(Cc1ccc(O)cc1)C(=O)O (stereo not given) | 105% (inactive) |
| C=C1C(=O)O[C@@H]2[C@H]3O[C@]3(C)CCC=C(C)CC[C@@H]12 | 92.5% (inactive) |
| CCOC(=O)C1=C(C)NC(C)=C(C(=O)OC)C1c1cccc([N+](=O)[O-])c1 (stereo not given) | 89.9% (inactive) |
| CC/C(=C(\c1ccccc1)c1ccc(OCCN(C)C)cc1)c1ccccc1 | 64.7% (inactive) |
| Clc1ccc(C(c2ccc(Cl)cc2)n2cc[n+](CC(OCc3ccc(Cl)cc3Cl)c3ccc(Cl)cc3Cl)c2)cc1 (stereo not given) | 0% (inactive) |
| CNCCc1c[nH]c2ccc(O)cc12 | 101% (inactive) |
| C[N+](C)(C)CCCCCC[N+](C)(C)C | 115% (inactive) and 117% (inactive) |
| NC(=O)CN1CC(O)CC1=O (stereo not given) | 90.1% (inactive) |
| COc1cc(OC)c(/C=C2/C(=O)Nc3ccccc32)c(OC)c1 | 44.4% (inactive) |
| CNCC[C@@H](Oc1ccc(C(F)(F)F)cc1)c1ccccc1 | 113% (inactive) |
| COC(=O)[C@@H](N)CCCN=C(N)N[N+](=O)[O-] | 95% (inactive) |
| NC(N)=NC(=O)c1nc(Cl)c(N2CCCCCC2)nc1N | 119% (inactive) |
| CN1CCN(CCCN2c3ccccc3Sc3ccc(Cl)cc32)CC1 | 68.9% (inactive) |
| CN(C)CCCN1c2ccccc2CCc2ccc(Cl)cc21 | 85.2% (inactive) |
| CCCCCC(O)CCCC(=O)O (stereo not given) | 101% (inactive) |

| SMILES | vessel count % control |
| --- | --- |
| O=c1[nH]c2cc(Cl)c(Cl)cc2[nH]c1=O | 109% (inactive) |
| CCCCC/C=C\C/C=C\C/C=C\C/C=C\CCCC(=O)NCC(=O)O | 83.7% (inactive) |
| Nc1nc2ccc(OC(F)(F)F)cc2s1 | 77% (inactive) |
| O=C1C(c2c(O)[nH]c3ccc(S(=O)(=O)O)cc23)=Nc2ccccc21 | 101% (inactive) |
| COc1nc(C)nc(Cl)c1NC1=NCCN1 | 81.3% (inactive) |
| CN1CCN(CC/C=C2/c3ccccc3Sc3ccc(S(=O)(=O)N(C)C)cc32)CC1 | 98.3% (inactive) |
| CC(C)NC(C)Cc1ccc(I)cc1 (stereo not given) | 109% (inactive) |
| OCc1ccc(-c2nn(Cc3ccccc3)c3ccccc23)o1 | 78.2% (inactive) |
| C=C[C@H]1CN2CCC1C[C@H]2[C@H](O)c1ccnc2ccc(OC)cc12 (stereo not given in full) | 98% (inactive) |
| O=C(Nc1ccc([N+](=O)[O-])cc1Cl)c1cc(Cl)ccc1O | 0% (inactive) |
| O=C1C(c2c(O)[nH]c3c(Cl)cc(Cl)cc23)=Nc2ccc(Br)cc21 | 123% (inactive) |
| CCN(CC)CCOC(=O)c1ccc(N)cc1 | 112% (inactive) |
| O=C(c1ccc2c(c1)OCCO2)N1CCCCC1 | 106% (inactive) |
| CCCC(=O)NCCc1c2n(c3ccc(OC)cc13)Cc1ccccc1-2 | 111% (inactive) |
| CN1CCC[C@H]1c1cccnc1 | 120% (inactive) |
| O=C1CCCN1CC#CCN1CCCC1 | 99.6% (inactive) |
| O=C1c2c(O)cc(O)cc2OC(c2ccc(O)c(O)c2)C1O (stereo not given) | 80.8% (inactive) |
| O=C(NCCNCC(O)COc1ccc(O)cc1)N1CCOCC1 (stereo not given) | 89.9% (inactive) |
| O=c1[nH]c(=O)n([C@H]2C[C@H](O)[C@@H](CO)O2)cc1Br | 105% (inactive) |
| O=C(O)CN(CCN(CC(=O)O)CC(=O)O)CCN(CC(=O)O)CC(=O)O | 0% (inactive) |
| OCCN1CCN(CCCN2c3ccccc3Sc3ccc(Cl)cc32)CC1 | 99.2% (inactive) |
| N=S(=O)(O)Cc1noc2ccccc12 | 88.2% (inactive) |
| N.N.O=C(O)C1(C(=O)O)CCC1.[Pt+2] | 105% (inactive) |
| Nc1ccc(CCN2CCN(c3cccc(C(F)(F)F)c3)CC2)cc1 | 96.3% (inactive) |
| O=C1NCN(c2ccccc2)C12CCN(CC1COc3ccccc3O1)CC2 (stereo not given) | 94.6% (inactive) |

| SMILES | vessel count % control |
| --- | --- |
| N[C@@H](Cc1ccc(F)cc1)C(=O)O | 108% (inactive) |
| CC1=C(/C=C/C(C)=C/C=C/C(C)=C/C(=O)Nc2ccc(O)cc2)C(C)(C)CCC1 | 96.8% (inactive) |
| NCCCCCCCCCCN | 146% (inactive) |
| O=C(O)Cc1cnc[nH]1 | 110% (inactive) |
| C[C@]12C=CC(=O)C=C1CC[C@@H]1C2=CC[C@]2(C)[C@@H](C(=O)CN3CCN(c4cc(N5CCCC5)nc(N5CCCC5)n4)CC3)CC[C@@H]12 | 101% (inactive) |
| CC(Cc1ccc(OCC(=O)O)cc1)NCC(O)c1cccc(Cl)c1 (stereo not given) | 97.7% (inactive) |
| C=C/C(C)=C/[C@@]1(C)SC(=O)C(C)=C1O | 97.7% (inactive) |
| O=C(c1ccc(F)cc1)C1CCN(CCn2c(=O)[nH]c3ccccc3c2=O)CC1 | 103% (inactive) |
| Cc1ccc(S(=O)(=O)N[C@@H](Cc2ccccc2)C(=O)CCl)cc1 | 97.1% (inactive) |
| COc1ccc2c(c1)[C@@]13CCCC[C@H]1[C@@H](C2)NCC3 | 78.3% (inactive) |
| CC(C)NC[C@H](O)COc1cccc2[nH]ccc12 | 97.6% (inactive) and 70.7% (inactive) |
| CC(C)NCC(O)c1ccc(NS(C)(=O)=O)cc1 (stereo not given) | 95.6% (inactive) |
| NS(=O)(=O)c1cc2c(cc1Cl)NC=NS2(=O)=O | 135% (inactive) |
| CC(C)Oc1cccnc1N(C)C1CCN(Cc2ccccc2)CC1 | 98.1% (inactive) |
| CCCCS(=N)(=O)CC[C@H](N)C(=O)O (stereo not given in full) | 93% (inactive) |
| NCCCCCC(=O)O | 116% (inactive) |
| COc1cc2c(cc1OC)-c1cc(=Nc3c(C)cc(C)cc3C)n(C)c(=O)n1CC2 | 58.5% (inactive) |
| COC1=C(OC)C(=O)c2ccccc2C1=O | 115% (inactive) |
| c1cnc2c(c1)ccc1cccnc12 | 0% (inactive) |
| CCn1c(=O)c2[nH]c(-c3ccccc3)nc2n(CC)c1=O | 63.2% (inactive) |
| C=CCN1CCc2cc(O)c(O)cc2C(c2ccccc2)C1 (stereo not given) | 114% (inactive) |
| NCCS(=O)(=O)O | 96.7% (inactive) |
| C[C@]12CC[C@@H]3c4ccc(O)cc4CC[C@H]3[C@@H]1CCC2=O | 111% (inactive) |
| CC(C)(C)[C@]1(O)CCN2C[C@H]3c4ccccc4CCc4cccc(c43)[C@@H]2C1 | 71.1% (inactive) and 90% (inactive) |
| NCC(CP(=O)(O)O)c1ccc(Cl)cc1 (stereo not given) | 116% (inactive) |
